Reference: publication PMC5760651, “Peptidomimetic blockade of MYB in acute myeloid leukemia” (Nature Communications, 2018)
Non-standard residues stand in square brackets, D forms with d. Residues, ends and D or L forms follow the SMILES beside them. No end group written: not given here. *: point of attachment. Biotin = O=C1N[C@H]2[C@H](CS[C@H]2CCCCC(=O)*)N1

What was measured:
[1] = Plasma pharmacokinetics of BIO-MYBMIM, spectrophotometric avidin assay; type: in vivo, mouse; conditions: C57BL/6J mice, single dose 25 mg/kg IP
Method: All mouse experiments were carried out in accordance with the Memorial Sloan Kettering Institutional Animal Care and Use Committee. For toxicity studies, female C57BL/6J mice (The Jackson Laboratory, Bar Harbor, Maine, USA) were treated with MYBMIM peptide suspended in PBS and administered daily through intraperitoneal injection at a dose of 25 mg/kg for a total of 7 days. Mice were sacrificed at the end of treatment for hematologic, biochemical and histologic analyses. For pharmacokinetic studies, C57BL/6J mice (The Jackson Laboratory, Bar Harbor, Maine, USA) were treated with a single IP injection of 25 mg/kg BIO-MYBMIM, and blood plasma was collected 30 min, 2 h, 4 h, and 24 h post-injection. Quantification of BIO-MYBMIM was measured using the Quant-Tag Biotin kit (Vector Labs, cat. # BDK-2000) following the manufacturer instructions. For patient-derived xenografts, two hundred thousand primary AML MLL-rearranged leukemia cells were suspended in […] of PBS and transplanted via tail vein injection into 8-week-old sublethally irradiated (200 rad) female NOD.Cg-Prkdc(scid)Il2rg(tm1Wjl)/SzJ mice (The Jackson Laboratory, Bar Harbor, Maine, USA). […] Mice were treated from days 3–17 of this study for a total of 14 days and then monitored daily with clinical examination for survival analysis.

[2] = test system: MOLM-13, MV-411, ML-2 and HL-60 cells; experiment: Cell viability of AML cell lines; type: cell-based, human; conditions: 6 days, 20 μM TG1, TG2 or TG3, 10 and 20 μM MYBMIM, peptide replacement every 48 h, compared to untreated control
Method: (§1) Cells were resuspended and plated at a concentration of 2 × 10^5 cells in 200 μl in 96-well tissue culture plates. Media with peptides was replaced every 48 h. To assess the number of viable cells, cells were resuspended in PBS and 10 µl of suspension was mixed in a 1:1 ratio with 0.4% Trypan Blue (Thermo Fisher) and counted using a hemacytometer (Hausser Scientific, Horsham, PA, USA). To assess viability using an ATP-based assay, cell viability was assessed using the CellTiter-Glo Luminescent Viability assay, according to the manufacturer’s instructions (Promega). Luminescence was recorded using the Infinite M1000Pro plate reader using integration time of 250 ms (Tecan).

[3] = test system: MOLM13, OCIAML2, and K562 cells; experiment: Cell viability with L-amino acid containing peptides; type: cell-based; conditions: 20 μM, 2 days, three biological replicates
Method: as §1
Supplementary Figure 5. Viability of MOLM13, OCIAML2, and K562 cells, treated for 2 days with control PBS (black), 20 μM TATMYG (blue), and 20 μM TATMYB (red). Error bars […]
between treatment conditions.
(1 picture or pasted object on this page, not shown here)

[4] = target: FITC-conjugated MYB peptide (L-amino acid containing counterpart of MYBMIM) (UniProt P10242); experiment: MST
[5] = target: T1, purified recombinant CBP KIX domain (UniProt P45481 586-665); experiment: MST; conditions: both partners purified
T1 construct: also called KIX domain of CBP; source: E. coli BL21(DE3), pGEX-KIX, purified (glutathione agarose, thrombin cleavage, MonoS cation exchange)
T1 sequence (P45481 586-665): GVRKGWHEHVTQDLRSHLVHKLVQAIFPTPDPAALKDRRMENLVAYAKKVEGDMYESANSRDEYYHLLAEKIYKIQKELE

Molecule: CC[C@@H](C)[C@@H](NC(=O)[C@@H](CCCCN)NC(=O)[C@@H](CCC(=O)O)NC(=O)[C@@H](CC(C)C)NC(=O)[C@@H](CCC(=O)O)NC(=O)[C@@H](CC(C)C)NC(=O)[C@@H](CC(C)C)NC(=O)[C@@H](CC(C)C)NC(=O)[C@@H](CCSC)NC(=O)[C@@H](CO)NC(=O)[C@H](NC(=O)[C@@H](CCC(=O)O)NC(=O)[C@@H](CC(N)=O)NC(=O)[C@@H](CCC(=O)O)NC(=O)[C@@H](CC(C)C)NC(=O)[C@@H](CCCCN)NC(C)=O)[C@H](C)O)C(=O)N[C@H](CCCNC(=N)N)C(=O)N[C@H](CCCCN)C(=O)NCC(=O)NCC(=O)N[C@H](CCCNC(=N)N)C(=O)N[C@H](CCCNC(=N)N)C(=O)N[C@H](CCCNC(=N)N)C(=O)N[C@H](CCC(N)=O)C(=O)N[C@H](CCCNC(=N)N)C(=O)N[C@H](CCCNC(=N)N)C(=O)N[C@H](CCCCN)C(=O)N[C@H](CCCCN)C(=O)N[C@H](CCCNC(=N)N)C(=O)NCC(=O)N[C@H](Cc1ccc(O)cc1)C(=O)N[C@H](CCCCNC(=O)CCCC[C@@H]1SC[C@@H]2NC(=O)N[C@@H]21)C(N)=O [BIO-MYBMIM] (Ac-[dK][dL][dE][dN][dE][dT][dS][dM][dL][dL][dL][dE][dL][dE][dK][dI][dR][dK]GG[dR][dR][dR][dQ][dR][dR][dK][dK][dR]G[dY][dK](Biotin)-NH2)
- Plasma elimination [1]: biphasic elimination
- Time of peak plasma peptide levels post injection ([1]; plasma collected at 30 min, 2 h, 4 h, 24 h): ≤ 30 min

Molecule: CC[C@@H](C)[C@@H](NC(=O)[C@@H](CCCCN)NC(=O)[C@@H](CCC(=O)O)NC(=O)[C@@H](CC(C)C)NC(=O)[C@@H](CCC(=O)O)NC(=O)[C@@H](CC(C)C)NC(=O)[C@@H](CC(C)C)NC(=O)CNC(=O)[C@@H](CCSC)NC(=O)[C@@H](CO)NC(=O)[C@H](NC(=O)[C@@H](CCC(=O)O)NC(=O)[C@@H](CC(N)=O)NC(=O)[C@@H](CCC(=O)O)NC(=O)[C@@H](CC(C)C)NC(=O)[C@@H](CCCCN)NC(C)=O)[C@H](C)O)C(=O)N[C@H](CCCNC(=N)N)C(=O)N[C@H](CCCCN)C(=O)NCC(=O)NCC(=O)N[C@H](CCCNC(=N)N)C(=O)N[C@H](CCCNC(=N)N)C(=O)N[C@H](CCCNC(=N)N)C(=O)N[C@H](CCC(N)=O)C(=O)N[C@H](CCCNC(=N)N)C(=O)N[C@H](CCCNC(=N)N)C(=O)N[C@H](CCCCN)C(=O)N[C@H](CCCCN)C(=O)N[C@H](CCCNC(=N)N)C(=O)NCC(=O)N[C@H](Cc1ccc(O)cc1)C(N)=O [TG1] (Ac-[dK][dL][dE][dN][dE][dT][dS][dM]G[dL][dL][dE][dL][dE][dK][dI][dR][dK]GG[dR][dR][dR][dQ][dR][dR][dK][dK][dR]G[dY]-NH2)
- Growth of AML cell lines [2]: inactive

Molecule: CC[C@@H](C)[C@@H](NC(=O)[C@@H](CCCCN)NC(=O)[C@@H](CCC(=O)O)NC(=O)[C@@H](CC(C)C)NC(=O)[C@@H](CCC(=O)O)NC(=O)[C@@H](CC(C)C)NC(=O)[C@@H](CC(C)C)NC(=O)CNC(=O)[C@@H](CCSC)NC(=O)[C@@H](CO)NC(=O)[C@H](NC(=O)[C@@H](CCC(=O)O)NC(=O)[C@@H](CC(N)=O)NC(=O)CNC(=O)[C@@H](CC(C)C)NC(=O)[C@@H](CCCCN)NC(C)=O)[C@H](C)O)C(=O)N[C@H](CCCNC(=N)N)C(=O)N[C@H](CCCCN)C(=O)NCC(=O)NCC(=O)N[C@H](CCCNC(=N)N)C(=O)N[C@H](CCCNC(=N)N)C(=O)N[C@H](CCCNC(=N)N)C(=O)N[C@H](CCC(N)=O)C(=O)N[C@H](CCCNC(=N)N)C(=O)N[C@H](CCCNC(=N)N)C(=O)N[C@H](CCCCN)C(=O)N[C@H](CCCCN)C(=O)N[C@H](CCCNC(=N)N)C(=O)NCC(=O)N[C@H](Cc1ccc(O)cc1)C(N)=O [TG2] (Ac-[dK][dL]G[dN][dE][dT][dS][dM]G[dL][dL][dE][dL][dE][dK][dI][dR][dK]GG[dR][dR][dR][dQ][dR][dR][dK][dK][dR]G[dY]-NH2)
- Growth of AML cell lines [2]: inactive

Molecule: Ac-YGRKKRRQRRRGGKRIKELELLLMSTENELK-NH2 [TATMYB]
- Viability [3]: no significant differences

Molecule: Ac-YGRKKRRQRRRGGKRIKELELLLMSTENGLK-NH2 [TATMYG]
- Viability [3]: no significant differences

Molecule: purified recombinant CBP KIX domain (from UniProt P45481 586-665) (domain or fragment)
- Kd [4]: 4.2 µM

B1: FITC-conjugated TG3 (peptide)
chain: [dK][dL]G[dN][dE][dT][dS][dM]G[dL][dL][dE][dL][dE][dK][dI]G[dK]GG[dR][dR][dR][dQ][dR][dR][dK][dK][dR]G[dY]-NH2
modifications: also: FITC-conjugated, site not given here
- Kd [5]: 114 ± 36.6 µM

B2: FITC-conjugated TG2 (peptide)
chain: [dK][dL]G[dN][dE][dT][dS][dM]G[dL][dL][dE][dL][dE][dK][dI][dR][dK]GG[dR][dR][dR][dQ][dR][dR][dK][dK][dR]G[dY]-NH2
modifications: also: FITC-conjugated, site not given here
- Kd [5]: 75.1 ± 12.5 µM

B3: FITC-conjugated MYBMIM (peptide)
chain: [dK][dL][dE][dN][dE][dT][dS][dM][dL][dL][dL][dE][dL][dE][dK][dI][dR][dK]
modifications: also: FITC-conjugated, site not given here, retro-inverso TAT delivery segment not in chain
- Kd [5]: 21.3 ± 2.9 µM

B4: FITC-conjugated TG1 (peptide)
chain: [dK][dL][dE][dN][dE][dT][dS][dM]G[dL][dL][dE][dL][dE][dK][dI][dR][dK]GG[dR][dR][dR][dQ][dR][dR][dK][dK][dR]G[dY]-NH2
modifications: also: FITC-conjugated, site not given here
- Kd [5]: 59.2 ± 12.4 µM
